We go through 2 compounds from patent publication US20020187538A1, “cDNA clone of (+)- delta-cadinene-8-hydroxylase gene from cotton plants” (priority 2001, published 2002).

For this series, the system named is CYP706B1. The series is described as follows: (+)-d-cadinene hydroxylase activity assay, inhibitors and cofactor. The following applies: for sensitivity to inhibition: qualitative statement, taken as indication of a cytochrome P450. The class given is biochemical, Gossypium arboreum. The protocol:
The yeast Saccharomyces cerevisiae strain W(R), which overexpresses the yeast cytochrome P450 reductase when grow on galactose, and the expression vector pYeDP60 were provided by D. Pompon (Pompon et al (1996) Methods Enzymol. 272, 51-64). The cDNA of CYP706B1 was modified by PCR with a 5′-terminal primer 5ç-[…] (sense), in which a Kpn I site was introduced, and a 3′-terminal primer 5ç-[…] (reverse), in which a Sac I site was introduced. PCR was conducted on plasmid DNA by using Pyrobest™ DNA polymerase (TaKaRa). After digestion with the restriction enzymes, the fragment was inserted into pYeDP60. Plasmid DNA was introduced into yeast cells by a LiAc method, transformed yeast cells were then selected, cultured, and induced, and microsomes were prepared following a high density procedure (Pompon et al (1996) Methods Enzymol. 272, 51-64).
The (+)-d-cadinene hydroxylase activity assay was based on a published protocol for monoterpene P450 hydroxylases (Mihaliak et al. (1993) Methods Plant Biochem. 9, 261-279). The radioactive assay was conducted in […] of potassium phosphate buffer (50 mM, pH 7.4) containing 1 mM EDTA (pH 8.0), 0.4 M sucrose, 2 mM DTT, 0.1% BSA, 1 mM NADPH, 5 mM FAD, 5 mM FMN, 4 mM glucose-6-phosphate, 1 unit of glucose-6-phosphate dehydrogenase, […] ^3H-(+)-d-cadinene (32 mCi/mmol) and yeast microsomes (100^˜[…] protein). The reaction was started by adding the microsomes, incubated at 30° C. for 1 hr, and stopped by chilling on ice. The reaction mixture was extracted three times with […] hexane:ethyl acetate (1:1), the extract was filtered through a 0.2 g, 100^˜200 mesh silica gel column in a pasteur pipet, eluted with 1.5 mL hexane:ethyl acetate (1:1), and concentrated to ca […] with an argon stream. The entire sample was subjected to reversed phase HPLC on C18 silica (250×4.6 mm, […] particle diameter) with a gradient of 40:60 to 100:0 acetonitrile/water (v/v) over 60 min followed by 10 min of 100% acetonitrile, flow rate 1 mL/min. Tritium was detected by an on-line liquid scintillation counter (b-RAM, IN/US Systems, Inc., Tampa, Fla.). […]

As for `[C-]#[O+]` [CO, carbon monoxide], the sensitivity to inhibition result is reported as “sensitivity to inhibition”. Further, the “inhibition of the hydroxylase activity” value (reaction mixture treated with a slow stream of CO for about 2 min, yeast microsomes containing CYP706B1) was determined as 70%.
As for `Clc1ccc(COC(Cn2ccnc2)c2ccc(Cl)cc2Cl)c(Cl)c1` (stereo not drawn) [miconazole], the sensitivity to inhibition entry was “sensitivity to inhibition”.
